{
  "source": "patent US20240041977A1",
  "about": "“ANNEXIN A1 N-TERMINAL PEPTIDE FORMULATIONS AND METHODS” (ResoTher Pharma A/S, priority 2020, published 2024)",
  "assay_type_in_all_cases": "physicochemical",
  "key": {"[1]": {"test": "ThT assay lag-time (fibrillation propensity, physical stability)", "from_the_text": "ThT is widely used to visualize and quantify the presence of misfolded peptide and protein aggregates called amyloids or fibrils. ThT is a fluorescent molecule that binds to inter molecular beta-sheets in peptides and proteins (here AnxA1). […] A weaker fluorescence intensity is indicative of less amyloids or fibrils present with fewer intermolecular beta-sheets where ThT can bind. Some peptides have a tendency to form fibrils and amyloids and the propensity is dependent on the formulation conditions in an unpredictable manor. Fibrillation is a stochastic process and to avoid long analysis times and both false negatives and positive results, shear stress is introduced to the sample by rigorous rotation in microtiter plates while continuously monitoring the fluorescence emission at approximately 486 nm. An increase in the fluorescence is an indication of the formation of amyloids or fibrils and the time it takes for the fluorescence to start increasing is known as the lag-time. A faster (short) lag-time is an indication of higher propensity for the peptide to degrade by formation of fibrils or amyloids. A ThT fluorescence of 50 AU at t=0 is considered noise or background. Lag time is reported as the time it takes for the signal intensity to exceed 50 AU. All samples for the ThT assay were filtered through cellulose acetate filters ([…], Ø=13 mm, rinsed with MilliQ® water prior to filtration). For each sample, 20 μL ThT of a 1 mM solution was added to 1 mL peptide solution. From this sample mixture, 200 μL was transferred into n wells in a 96 well microtiter plate (n=3-6). 96-well NUNC plates Bottom optics and Sealing tape, Thermo Scientific™ Nunc™ Sealing Tapes, was used. Lag-time is reported as an average of n samples. A fluorescence plate reader (CLARIOstar® Plus, BMG Labtech) was used for the experiments with the following setting: Excitation wavelength 450 nm; Dichroic filter 465 nm; Emission wavelength 486 nm; Focal height 3.5 mm; Gain 1000; […]; […]; Number of flashes per well 20; Temperature 25° C.; Shake mode orbital, Frequency of 300 rpm, 200 s, and shake after each cycle. If possible, the average of all ThT data replicates are used for ThT lag-time determination. In case of very stochastic data, worst-case data is used for lag-time evaluation. ThT lag-time was determined using either a 1-step or 2-step sigmoidal curve."}, "[2]": {"test": "Solubility: concentration of AnxA1 in solution/supernatant by UV-VIS", "description": "The concentration of AnxA1 was determined using UV-VIS spectroscopy using a Nanodrop 2000c from Thermo scientific and an extinction coefficient of A280^0.1%=1.64 ml mg^−1cm^−1.\nThree samples of AnxA1 was prepared at pH 9 in Milli Q® water, 0.9% NaCl (154 mM) at concentrations 3.3, 1.6 and 0.8 mg/mL, respectively. pH was adjusted by addition of 0.1 M NaOH to each of the samples and the concentration determined after centrifugation using UV-VIS spectroscopy.\nAnxA1 samples are dissolved in Milli Q® water or 5% mannitol in Milli Q® water to approximately 18 mg/mL and pH was adjusted using 1.0 M HCl and NaOH. After dissolution visual appearance was noted and a photograph was taken, see FIG. 6 and Table 4, and a sample was cleared by centrifugation and the concentration determined in the supernatant using UV-VIS spectroscopy."}, "[3]": {"test": "Visual appearance of solution"}, "[4]": {"conditions": "saline at neutral pH around 7.3"}},
  "note": "Values joined by “and” are separate entries in the source; they are usually repeats but may differ in a detail not shown here. Equal values may be shown once. Marks after values point to notes of the source that are not given here. Ends that are not written are not given here.",
  "data": [
    {"substance": "AMVSEFLKQAWFIENEEQEYVQTLKSSKGGPGSAVSPYPTFNPSSDV-NH2 [AnxA1]", "values": [
      {"measurement": "Lag-time", "setting": "[1]; AnxA1 4.7 mg/mL, sorbitol 5 wt.%, Tris 10 mM, pH 7.5", "value": 10.8, "unit": "h"},
      {"measurement": "Lag-time", "setting": "[1]; AnxA1 4.7 mg/mL, sucrose 10 wt.%, Tris 10 mM, pH 7.5", "value": 11.1, "unit": "h"},
      {"measurement": "Lag-time", "setting": "[1]; AnxA1 4.7 mg/mL, sucrose 10 wt.%, glycyl-glycine 30 mM, pH 8.0 (two samples)", "value": ">65 h and 50 h"},
      {"measurement": "Lag-time", "setting": "[1]; AnxA1 4.8 mg/mL, mannitol 5 wt.%, histidine 10 mM, pH 6.6", "value": 42.1, "unit": "h"},
      {"measurement": "Lag-time", "setting": "[1]; AnxA1 4.8 mg/mL, sorbitol 5 wt.%, histidine 10 mM, pH 6.7", "value": 21.3, "unit": "h"},
      {"measurement": "Lag-time", "setting": "[1]; AnxA1 4.8 mg/mL, sucrose 10 wt.%, glycylglycine 10 mM, pH 7.9, no increase in fluorescence within 65 hours", "value": "> 65* hours"},
      {"measurement": "Lag-time", "setting": "[1]; AnxA1 4.8 mg/mL, sucrose 10 wt.%, histidine 10 mM, pH 6.6", "value": 48.8, "unit": "h"},
      {"measurement": "Avg. lag-time", "setting": "[1]; AnxA1 5.0 mg/mL, 0.9% NaCl in Milli Q water, pH 7.3", "value": 2.7, "unit": "h"},
      {"measurement": "Lag-time", "setting": "[1]; AnxA1 5 mg/mL, tonicity 80%, mannitol 3.2 wt.%, sucrose 0.8 wt.%, NaHCO3 10 mM, pH 8.41", "value": "<60", "unit": "h"},
      {"measurement": "Lag-time", "setting": "[1]; AnxA1 5 mg/mL, tonicity 80%, mannitol 3.2 wt.%, sucrose 0.8 wt.%, glycylglycine 10 mM, pH 8.40", "value": "<60", "unit": "h"},
      {"measurement": "Lag-time", "setting": "[1]; AnxA1 5 mg/mL, tonicity 100%, mannitol 4.0 wt.%, sucrose 1.0 wt.%, NaHCO3 10 mM, pH 8.40", "value": "<60", "unit": "h"},
      {"measurement": "Lag-time", "setting": "[1]; AnxA1 5 mg/mL, tonicity 100%, mannitol 4.0 wt.%, sucrose 1.0 wt.%, glycylglycine 10 mM, pH 8.39", "value": "<60", "unit": "h"},
      {"measurement": "Lag-time", "setting": "[1]; AnxA1 5 mg/mL, tonicity 120%, mannitol 4.8 wt.%, sucrose 1.2 wt.%, NaHCO3 10 mM, pH 8.40", "value": "<60", "unit": "h"},
      {"measurement": "Lag-time", "setting": "[1]; AnxA1 5 mg/mL, tonicity 120%, mannitol 4.8 wt.%, sucrose 1.2 wt.%, glycylglycine 10 mM, pH 8.41", "value": "<60", "unit": "h"},
      {"measurement": "Lag-time", "setting": "[1]; AnxA1 5 mg/mL, tonicity 200%, mannitol 8.0 wt.%, sucrose 2.0 wt.%, NaHCO3 10 mM, pH 8.44", "value": "<60", "unit": "h"},
      {"measurement": "Lag-time", "setting": "[1]; AnxA1 5 mg/mL, tonicity 200%, mannitol 8.0 wt.%, sucrose 2.0 wt.%, glycylglycine 10 mM, pH 8.40", "value": "<60", "unit": "h"},
      {"measurement": "Avg. lag-time", "setting": "[1]; AnxA1 6.1 mg/mL in Milli-Q water, pH 7.4", "value": 29.6, "unit": "h"},
      {"measurement": "Avg. lag-time", "setting": "[1]; AnxA1 6.4 mg/mL, 0.9% NaCl in Milli Q water, pH 7.3", "value": 0, "unit": "h"},
      {"measurement": "Avg. lag-time", "setting": "[1]; AnxA1 7.6 mg/mL, 0.9% NaCl in Milli Q water, pH 7.3", "value": 0, "unit": "h"},
      {"measurement": "Lag-time", "setting": "[1]; AnxA1 7.7 mg/mL, sucrose 10 wt.%, glycyl-glycine 50 mM, pH 8.5", "value": 29.5, "unit": "h"},
      {"measurement": "Lag-time", "setting": "[1]; AnxA1 7.8 mg/mL, mannitol 4 wt.%, sucrose 2.5 wt.%, glycyl-glycine 50 mM, pH 8.5", "value": 31.5, "unit": "h"},
      {"measurement": "Lag-time", "setting": "[1]; AnxA1 7.9 mg/mL, sucrose 10 wt.%, glycyl-glycine 10 mM, pH 7.5", "value": 23.8, "unit": "h"},
      {"measurement": "Avg. lag-time", "setting": "[1]; AnxA1 8.0 mg/mL in Milli-Q water, pH 7.4", "value": 11.5, "unit": "h"},
      {"measurement": "Lag-time", "setting": "[1]; AnxA1 8.0 mg/mL, mannitol 4 wt.%, sucrose 2.5 wt.%, glycyl-glycine 10 mM, pH 7.5", "value": 15.1, "unit": "h"},
      {"measurement": "Lag-time", "setting": "[1]; AnxA1 8.0 mg/mL, mannitol 4 wt.%, sucrose 2.5 wt.%, glycyl-glycine 10 mM, pH 8.3", "value": ">65", "unit": "h"},
      {"measurement": "Lag-time", "setting": "[1]; AnxA1 8.0 mg/mL, mannitol 4 wt.%, sucrose 2.5 wt.%, glycyl-glycine 50 mM, pH 7.6", "value": 3.3, "unit": "h"},
      {"measurement": "Lag-time", "setting": "[1]; AnxA1 8.0 mg/mL, mannitol 5 wt.%, glycyl-glycine 50 mM, pH 7.5", "value": 3.1, "unit": "h"},
      {"measurement": "Lag-time", "setting": "[1]; AnxA1 8.0 mg/mL, mannitol 5 wt.%, glycyl-glycine 50 mM, pH 8.5", "value": 41.7, "unit": "h"},
      {"measurement": "Lag-time", "setting": "[1]; AnxA1 8.1 mg/mL, mannitol 5 wt.%, glycyl-glycine 10 mM, pH 7.4", "value": 13.7, "unit": "h"},
      {"measurement": "Lag-time", "setting": "[1]; AnxA1 8.1 mg/mL, sucrose 10 wt.%, glycyl-glycine 10 mM, pH 8.2", "value": ">65", "unit": "h"},
      {"measurement": "Lag-time", "setting": "[1]; AnxA1 8.4 mg/mL, mannitol 5 wt.%, glycyl-glycine 10 mM, pH 8.2", "value": 41, "unit": "h"},
      {"measurement": "Avg. lag-time", "setting": "[1]; AnxA1 20 mg/mL (estimated from amount weighed, gel-like texture), 0.9% NaCl, pH 8.1 (not considered valid)", "value": 0, "unit": "h"},
      {"measurement": "lag-time", "setting": "[1]; Example 11 composition at pH 7.5", "value": "35 h and 34.7 h"},
      {"measurement": "lag-time", "setting": "[1]; Milli Q water around neutral pH, no addition of salt", "value": "> 50", "unit": "h"},
      {"measurement": "fibrillation in ThT assay", "setting": "[1]; NaHCO3 or glycylglycine buffer at 20% hypotonicity, and at 20% and 100% hypertonicity", "value": "No fibrillation was observed"},
      {"measurement": "Lag-time", "setting": "[1]; all samples containing 10 mM glycyl-glycine, pH 8, independent of AnxA1 concentration (1.5-4.8 mg/mL) and isotonicity modifier", "value": "> 65", "unit": "h"},
      {"measurement": "fibrillation propensity", "setting": "[1]; concentrations ≥5 mg/mL, 0.9% NaCl in Milli Q water, around neutral pH, degradation initiated before the analysis is started", "value": "very high fibrillation propensity"},
      {"measurement": "fibrillation in ThT assay", "setting": "[1]; positive control sample in 0.9% saline", "value": "Fibrillation is observed"},
      {"measurement": "fibrillation propensity", "setting": "[1]; [4]", "value": "very high fibrillation propensity"},
      {"measurement": "solubility thermodynamic", "setting": "[2]; 0.9% NaCl (154 mM) in Milli Q water, saline or isotonic, 20 mg freeze-dried AnxA1 per mL 0.9% NaCl (154 mM) in Milli Q, neutral pH, over night at room temperature on rotation, spun down", "value": "~170", "unit": "µg/mL"},
      {"measurement": "solubility (concentration A280 as a function of pH)", "setting": "[2]; AnxA1 3.3, 1.6 and 0.8 mg/mL in MiliQ water, 0.9% NaCl (154 mM), below pH 6.0", "value": "very low"},
      {"measurement": "solubility", "setting": "[2]; [4]", "value": "poorly soluble"},
      {"measurement": "appearance", "setting": "[3]; 20 mg AnxA1 per mL 0.9% NaCl, neutral pH, after over night at room temperature on rotation", "value": "opaque gel like substance"},
      {"measurement": "appearance", "setting": "[3]; AnxA1 3.3, 1.6 and 0.8 mg/mL in Milli Q water, 0.9% NaCl (154 mM), at pH 6.0", "value": "opaque"},
      {"measurement": "appearance", "setting": "[3]; AnxA1 3.3, 1.6 and 0.8 mg/mL in Milli Q water, 0.9% NaCl (154 mM), immediately below pH 6.0", "value": "precipitated"}
    ]}
  ]
}
